Measurements taken from US20210115087A1, “CYCLIC PEPTIDE INHIBITORS OF HEDGEHOG PROTEINS” (University of Rochester, priority 2016, published 2021).
“Also recorded” adds a separate entry of the source. *1 amine or outer side, *2 acyl side, *3 side chain or, on linkers, in order; H or OH if unused. Where a SMILES comes first, the peptide text is derived from it. Bridges are numbered along the chain shown (N, C = ends). CH2CH2 = C(C[*:2])[*:1]

Key:
[1] = tested on: GST-Shh, GST-Ihh, and GST-Dhh; experiment: Hedgehog analog selectivity: relative binding at fixed peptide concentration; parameters: species or system human; settings: peptide at fixed concentration of 0.5-1 μM, normalized to highest response
Procedure: FIG. 14. Hh analog selectivity for linear HHIP L2-derived peptide (HL2-pep) and representative cyclic peptide inhibitors. The data relative to the peptides were derived from direct binding experiments with immobilized Hedgehog proteins (i.e., GST-Shh, GST-Ihh, and GST-Dhh), biotinylated peptides (i.e., Biot-HL2-pep, Biot-HL2-m1, Biot-HL2-m2, Biot-HL2-m3, Biot-HL2-m4, Biot-HL2-m4), and HRP-conjugated streptavidin. The data relative to robotnikinin were derived from competition experiments ([…]+400 nM HL2-m5). For each compound, the response values were normalized to the highest binding response measured across the three Hedgehog analogs.
Hedgehog analog selectivity. KD values for FLAG-HL2-m5 binding to Ihh and Dhh were determined using the colorimetric immunoassay described earlier but using GST-Ihh and GST-Dhh-coated plates, respectively. The peptide relative binding affinity for the three isoforms of Hedgehog was determined using the same assay and peptide solutions at a fixed concentration of 0.5-1 μM. In this case, binding responses were subtracted against the blank (no peptide sample) and normalized to the highest value measured across the three Hh isoforms. Mean values and standard deviations were calculated from experiments performed at least in triplicate.

[2] = tested on: Shh-mediated Hedgehog pathway signaling in NIH3T3 cells; experiment: Gli-reporter dual luciferase assay in Shh-N-stimulated NIH-3T3 cells; format: cell-based, mouse
Description: The ability of the compounds provided herein to inhibit ligand-induced activation of the Hedgehog pathway in a cell can be assessed by means of a cell based assay. In an exemplary procedure, a suitable reporter plasmid is introduced in a Hedgehog responsive mammalian cell. Typically, the reporter plasmid contains a reporter gene encoding (e.g., a gene encoding for firefly luciferase) under a Gli-controlled promoter, thereby providing a reporter gene that is responsive to the activity of the Gli transcription factors. […] The reporter cells are incubated with the Hedgehog protein in the presence and in the absence of the cyclic peptide. The extent of Hedgehog pathway suppression can be determined based on relative activity of the luciferase reporter enzyme, which in turn can be determined by measuring the luminescence signal after addition of a luminogenic substrate of the luciferase enzyme.
To this end, we utilized a cell-based luciferase reporter assay, (Chen, Taipale et al. 2002) in which mouse embryo fibroblasts (NIH3T3) are transfected with vectors encoding for a Firefly luciferase (FF) gene under a Gli-controlled promoter and a Renilla luciferase (Ren) gene under a constitutive promoter. Hedgehog pathway suppression is measured based on the decrease in Firefly/Renilla luminescence ratio in the presence of the inhibitor. […] (Chen, Taipale et al. 2002)
Gli-reporter Assay. NIH-3T3 cells were passaged twice and then plated in 24-well culture dishes at 5×10^5 cells/well in DMEM containing 10% FBS and 1% penicillin/streptomycin. After 24 hours, the cells were transfected (TransIT-2020) with a mixture of a firefly luciferase reporter construct under the control of a Gli1 inducible promoter and a Renilla luciferase reporter construct under a constitutive promoter (40:1) (Cignal GLI Reporter Luciferase Kit, Qiagen). Cells were allowed to reach confluency, at which point the media was changed to Opti-MEM containing 1% FBS and added with 4 nM Shh-N(R&D Systems, Minneapolis, Minn.) in sterile PBS buffer. Synthetic HL2-lin and HL2-m5 were added at the same time at varying concentration (0.01-30 uM), and control cells were prepared by adding vehicle only (1% DMSO). Purmorphamine-treated cells were prepared by adding 5 μM purmorphamine to wells containing 10 μM HL2-m5. After growth for 24 hours at 37° C. in a humidified chamber, the cells were harvested and analyzed for Firefly and Renilla luciferase activity using a Tecan Spark-20 plate reader and a DLR kit (Promega) according to the manufacturer's instructions. Luminescence values were normalized to those of the Shh pathway activated control cells. Mean values and standard deviations were calculated from experiments performed at least in duplicate.

[3] = target: T1, GST-Shh (Homo sapiens, UniProt Q15465); experiment: Hh protein binding immunoassay: FLAG-tagged peptide on plate-immobilized GST-Shh, HRP-conjugated anti-FLAG antibody
T1 construct: poly-histidine (N); made in house; host or cells: E. coli BL21(DE3), vector pET42b
Description: As for any peptide/protein interaction, various analytical and biophysical methods can be applied to test and assess the ability of the compounds provided herein to bind to Hedgehog proteins. These methods include, but are not limited to immunoassays (e.g., ELISA), radio(immune)assays, fluorescence-based assays, colorimetric assays, and/or techniques such as surface plasmon resonance (SPR), FRET, fluorescence polarization, isothermal calorimetry, NMR, and the like. A method that can be used is a solid phase immunoassay, in which the Hedgehog protein is immobilized on a plate or test tube and then incubated with the peptide at a fixed or variable concentration. In this assay, the peptide is functionalized with a label in the form of an antibody epitope (e.g., ‘FLAG tag’ peptide sequence) or an affinity tag molecule (e.g., biotin). After washing the unbound peptide, the Hedgehog-bound peptide is detected and quantified by means of a colorimetric assay using an enzyme-conjugated antibody (e.g., horseradish peroxidase-conjugated anti-FLAG antibody) or enzyme-conjugated capture protein (e.g., horseradish peroxidase-conjugated streptavidin). […]
To measure the binding affinity of the peptides for Shh, an in vitro assay was established in which recombinant GST-fused Shh is immobilized on microtiter plates and then exposed to the FLAG-tagged peptide at varying concentrations. The Shh-bound peptide is then quantified colorimetrically (λ450) using a horseradish peroxidase (HRP)-conjugated anti-FLAG antibody. […]
Hh protein binding assay. Shh binding activity/affinity of the linear and cyclic peptides was measured using the immunoassay outlined in FIG. 4. […] After washing, 100 μL of 2.2 mM o-phenylenediamine dihydrochloride, 4.2 mM urea hydrogen peroxide, 100 mM dibasic sodium phosphate and 50 mM sodium citrate, pH 5.0 was added to each well, followed by measurement of the absorbance at 450 nm using a Tecan Infinite 1000 plate reader. […]
Target sequence in this assay (Q15465 24-462): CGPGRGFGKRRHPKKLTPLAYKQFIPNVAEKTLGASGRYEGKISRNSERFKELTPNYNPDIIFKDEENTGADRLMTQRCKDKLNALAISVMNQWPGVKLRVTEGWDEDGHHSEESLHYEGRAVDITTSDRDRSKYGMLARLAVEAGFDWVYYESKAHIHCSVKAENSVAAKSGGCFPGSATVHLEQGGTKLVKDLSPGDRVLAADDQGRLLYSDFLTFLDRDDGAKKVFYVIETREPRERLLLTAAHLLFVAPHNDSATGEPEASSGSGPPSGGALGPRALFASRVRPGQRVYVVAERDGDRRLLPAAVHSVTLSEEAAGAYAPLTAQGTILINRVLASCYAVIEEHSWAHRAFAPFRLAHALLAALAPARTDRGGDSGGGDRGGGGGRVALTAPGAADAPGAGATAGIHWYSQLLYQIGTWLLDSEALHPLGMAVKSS

[4] = target: T1, GST-Shh; experiment: KD (nM)
Description: Table printed on a drawing sheet, FIG. 9
Head of the field: KD (nM)
The patent's description of the figure: FIG. 9. Shh binding affinity of X5-X8-linked cyclic peptides.
First copying reader's note: The error (±) is printed in the same cell as the KD value.
Where the first naming reader finds the target: description_of_the_figure: direct binding of the selected FLAG tag-fused peptides to plate-immobilized GST-Shh
Target sequence in this assay (Q15465 24-197 limits assumed): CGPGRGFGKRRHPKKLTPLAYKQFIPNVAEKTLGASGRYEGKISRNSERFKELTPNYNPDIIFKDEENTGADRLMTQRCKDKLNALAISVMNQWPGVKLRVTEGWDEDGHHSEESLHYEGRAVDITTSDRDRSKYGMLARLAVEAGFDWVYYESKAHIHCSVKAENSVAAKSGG

## HL2-pep: linear peptide derived from the HHIP L2 loop (TLDDMEEMDGLSD)
[1]
  Hedgehog analog selectivity profile: Dhh>Shh≈Ihh
[2]; concentrations up to 30 μM, Shh-N-stimulated cells
  inhibitory activity on Hedgehog pathway signaling (in words): no inhibitory activity; also recorded: unable to suppress signaling

## c1ccc2c(Oc3nc(Nc4ccc(N5CCOCC5)cc4)c4ncn(C5CCCCC5)c4n3)cccc2c1 [purmorphamine]
[2]; 5 μM purmorphamine added to 10 μM HL2-m5
  effect of Smo agonist on pathway signaling in HL-m5-treated cells: restored activation of the signaling pathway

## CSCC[C@@H]1NC(=O)[C@H](C)NC(=O)[C@H](CCC(=O)O)NC(=O)[C@@H](NC(=O)[C@H](Cc2c[nH]c3ccccc23)NC(=O)[C@H](CO)NC(=O)[C@H](CC(C)C)NC(=O)[C@@H](NC(=O)[C@H](CO)NC(=O)CNC(=O)[C@H](CO)NC(=O)CNC(=O)[C@H](CCCCN)NC(=O)[C@H](CC(=O)O)NC(=O)[C@H](CC(=O)O)NC(=O)[C@H](CC(=O)O)NC(=O)[C@H](CC(=O)O)NC(=O)[C@H](CCCCN)NC(=O)[C@H](Cc2ccc(O)cc2)NC(=O)[C@H](CC(=O)O)NC(=O)[C@@H](N)CCSC)[C@@H](C)O)Cc2ccc(cc2)OCCSC[C@@H](C(=O)N[C@H](C(=O)N[C@@H](CC(=O)O)C(=O)O)[C@@H](C)O)NC(=O)[C@H](CCSC)NC(=O)[C@H](CC(=O)O)NC1=O [FLAG-HL2-m5] (H-MDYKDDDDKGSGSTLSWYEAMDMCTD-OH; linker 18-24 via CH2CH2)
[3]
  Kd: 170 nM
[3]; ratio of KD values
  higher binding affinity for Shh compared to the linear L2-derived peptide (FLAG-HL2-pep): ~120 fold

## CSCC[C@H](N)C(=O)N[C@@H](CC(=O)O)C(=O)N[C@@H](Cc1ccc(O)cc1)C(=O)N[C@@H](CCCCN)C(=O)N[C@@H](CC(=O)O)C(=O)N[C@@H](CC(=O)O)C(=O)N[C@@H](CC(=O)O)C(=O)N[C@@H](CC(=O)O)C(=O)N[C@@H](CCCCN)C(=O)NCC(=O)N[C@@H](CO)C(=O)NCC(=O)N[C@@H](CO)C(=O)N[C@H](C(=O)N[C@@H](CCCNC(=N)N)C(=O)NCC(=O)N[C@@H](CC(=O)O)C(=O)NCC(=O)N[C@@H](CCC(=O)O)C(=O)N[C@@H](CCC(=O)O)C(=O)N[C@H]1Cc2ccc(cc2)OCCSC[C@@H](C(=O)N[C@H](C(=O)N[C@@H](CC(=O)O)C(=O)O)C(C)C)NC(=O)CNC(=O)[C@H](CC(=O)O)NC1=O)[C@@H](C)O [FLAG-HL2-2m1.2] (H-MDYKDDDDKGSGSTRGDGEEYDGCVD-OH; linker 21-24 via CH2CH2; N-terminus assumed)
[4]
  Kd: 850 ± 20 nM

## CC1=C2C[C@H]3[C@@H](CC=C4C[C@@H](O)CC[C@@]43C)[C@@H]2CC[C@]12O[C@@H]1C[C@H](C)CN[C@H]1[C@H]2C [cyclopamine]
[2]; concentration of 10 μM
  inhibition of Shh-induced luminescence: full inhibition

## CSCC[C@@H]1NC(=O)[C@H](CCC(=O)O)NC(=O)[C@H](CCC(=O)O)NC(=O)[C@@H](NC(=O)[C@H](CC(=O)O)NC(=O)[C@H](CC(=O)O)NC(=O)[C@H](CC(C)C)NC(=O)[C@@H](NC(=O)[C@H](CO)NC(=O)CNC(=O)[C@H](CO)NC(=O)CNC(=O)[C@H](CCCCN)NC(=O)[C@H](CC(=O)O)NC(=O)[C@H](CC(=O)O)NC(=O)[C@H](CC(=O)O)NC(=O)[C@H](CC(=O)O)NC(=O)[C@H](CCCCN)NC(=O)[C@H](Cc2ccc(O)cc2)NC(=O)[C@H](CC(=O)O)NC(=O)[C@@H](N)CCSC)[C@@H](C)O)Cc2ccc(cc2)OCCSC[C@@H](C(=O)N[C@@H](CO)C(=O)N[C@@H](CC(=O)O)C(=O)O)NC(=O)CNC(=O)[C@H](CC(=O)O)NC1=O [FLAG-HL2-m1] (H-MDYKDDDDKGSGSTLDDYEEMDGCSD-OH; linker 18-24 via CH2CH2; N-terminus assumed)
[3]; ratio of KD values
  increase in Shh binding affinity compared to FLAG-HL2-m1: 11 fold

## CSCC[C@H](N)C(=O)N[C@@H](CC(=O)O)C(=O)N[C@@H](Cc1ccc(O)cc1)C(=O)N[C@@H](CCCCN)C(=O)N[C@@H](CC(=O)O)C(=O)N[C@@H](CC(=O)O)C(=O)N[C@@H](CC(=O)O)C(=O)N[C@@H](CC(=O)O)C(=O)N[C@@H](CCCCN)C(=O)NCC(=O)N[C@@H](CO)C(=O)NCC(=O)N[C@@H](CO)C(=O)N[C@H](C(=O)N[C@H](C(=O)N[C@@H](CO)C(=O)N[C@@H](CC(=O)O)C(=O)NCC(=O)N[C@@H](CCC(=O)O)C(=O)N[C@@H](CCC(=O)O)C(=O)N[C@H]1Cc2ccc(cc2)OCCSC[C@@H](C(=O)N[C@@H](CC(C)C)C(=O)N[C@@H](CC(=O)O)C(=O)O)NC(=O)CNC(=O)[C@H](CC(=O)O)NC1=O)C(C)C)[C@@H](C)O [FLAG-HL2-2m1.1] (H-MDYKDDDDKGSGSTVSDGEEYDGCLD-OH; linker 21-24 via CH2CH2; N-terminus assumed)
[4]
  Kd: 560 ± 5 nM
